# Source: patent US20140130208A1, “METHODS AND MEANS TO PRODUCE ABIOTIC STRESS TOLERANT PLANTS” (VIB VZW, priority 2011, published 2014)
# Key:
# [1] = tested on: CYCB1;1:Dbox-GUS reporter line; test: CYCB1;1:DBox-GUS staining of mitotic activity in leaf 3; format: in vivo, Arabidopsis thaliana; conditions: 48 h after transfer to 25 mM mannitol or 5 μM ACC
# Procedure: Arabidopsis seedlings were germinated and grown on nylon meshes overlaying control medium until 9 days after stratification (DAS), when the third true leaf is fully proliferating (Skirycz et al., 2010), and subsequently transferred to control or mannitol-containing medium (FIGS. 1A to 10). Kinematic analysis was performed, whereby leaves were harvested daily throughout development of leaf 3 (9-20 DAS) and based on drawings of the abaxial epidermis cell number, cell area, number of guard cells and cell division and cell expansion rates were calculated (De Veylder et al., 2001). […] Leaf and plant morphology were not altered by mannitol (FIG. 2C). Cell expansion was also affected by stress and the reduced final leaf area was a combination of fewer and smaller cells (FIG. 2D). The stomatal index, which represents the number of stomata as a fraction of the total number of cells, was reduced as well (FIG. 2E). To learn more about the mechanisms underlying the rapid reduction of cell division upon stress onset, we harvested leaf samples daily after transfer. As a measure of cellular differentiation, the ploidy distribution was examined by flow cytometry. […] In stressed leaves, 4C nuclei started to accumulate approximately one day earlier than in controls at the expense of 2C nuclei (FIG. 3A). […]
# [2] = tested on: Arabidopsis thaliana third true leaf; test: Ploidy analysis of leaf 3 by flow cytometry (endoreduplication onset); format: in vivo; conditions: transfer at 9 DAS to 25 mM mannitol or 5 μM ACC
# Procedure: Arabidopsis seedlings were germinated and grown on nylon meshes overlaying control medium until 9 days after stratification (DAS), when the third true leaf is fully proliferating (Skirycz et al., 2010), and subsequently transferred to control or mannitol-containing medium (FIGS. 1A to 10). Kinematic analysis was performed, whereby leaves were harvested daily throughout development of leaf 3 (9-20 DAS) and based on drawings of the abaxial epidermis cell number, cell area, number of guard cells and cell division and cell expansion rates were calculated (De Veylder et al., 2001). […] Leaf and plant morphology were not altered by mannitol (FIG. 2C). Cell expansion was also affected by stress and the reduced final leaf area was a combination of fewer and smaller cells (FIG. 2D). The stomatal index, which represents the number of stomata as a fraction of the total number of cells, was reduced as well (FIG. 2E). To learn more about the mechanisms underlying the rapid reduction of cell division upon stress onset, we harvested leaf samples daily after transfer. […]
# For flow cytometry analysis, nuclei were extracted by chopping 4-32 leaves with a razor blade in 1 ml of 45 mM MgCl2, 30 mM sodium citrate, 20 mM 3-(N-morpholino)propanesulfonic acid, pH 7, and 1% Triton X-100 (Galbraith et al., 1983). […] The nuclei were analyzed with a CyFlow flow cytometer with the FloMax Software (Partec).
# [3] = tested on: proliferating leaf primordia transcriptome; test: ATH1 whole-genome transcript profiling of proliferating leaf primordia; format: in vivo, Arabidopsis thaliana
# Description: To obtain a better understanding of the molecular mechanisms inhibiting cell division during stress, we subjected proliferating leaf primordia to whole-genome transcript profiling. […] Selected microarray data could be validated with a nCounter platform containing probes for 100 genes involved in growth, stress, and hormonal regulation. Differential transcripts were used to construct Venn diagrams and were subjected to k-means clustering. […] Subsequently, the differential transcripts were examined with PageMan to calculate the functional overrepresentation of MapMan categories (Thimm et al., 2004; Usadel et al., 2006) and were compared to selected publicly available microarray experiments (see “Materials and Methods”). To explain the reduced cell proliferation rates, cell cycle genes were among the prime suspects. […] Strikingly, the magnitude of change for all of the above-mentioned cell cycle genes was similar (approximately 30%) and occurred only at 24 h (FIG. 6A). Besides the cell cycle-related transcripts, we were particularly interested in genes related to hormonal signaling.
# Leaf 3 was harvested from plants at 1.5, 3, 12, and 24 h. Briefly, whole seedlings were harvested in an excess of RNAlater solution (Ambion) and, after overnight storage at 4° C., dissected under a binocular microscope on a cooling plate with precision microscissors. Dissected leaves were transferred to a new tube, frozen in liquid nitrogen, and ground with a Retsch machine and 3-mm metal balls. Samples were obtained from three independent biological experiments and from multiple plates within the experiment.
# RNA was extracted with TriZol (Invitrogen) according to the manufacturer's instructions with 4 μg of glycogen as carrier during the precipitation step. RNA samples were subjected to DNA digestion with RNase-free DNase I (Roche) and subsequently cleaned up with the RNeasy Mini Kit (Qiagen).
# RNA samples were hybridized to single Affymetrix ATH1 Genome arrays at the VIB Microarray Facility (Leuven, Belgium). Expression data were processed with Robust Multichip Average (RMA) (background correction, normalization, and summarization) as implemented in BioConductor (Irizarry et al., 2003a, 2003b; Gentleman et al., 2004). An alternative cdf (“tinesath1cdf”) was used, in which each probe is uniquely assigned to one transcript (Casneuf et al., 2007) (http://www.bioconductor.org/packages/release/data/experiment/html/tinesath1cdf.html). The BioConductor package Limma was used to identify differentially expressed genes (Smyth, 2004). For comparisons of interest, moderated t statistics were calculated using the eBayes function and P values were corrected for multiple testing for each contrast separately using topTable. False-discovery rate (FDR)-corrected p-value<0.05 was used as a cut-off (Benjamini and Hochberg, 1995).
# [4] = 1.5 h after transfer to 25 mM mannitol
# [5] = 3 h after transfer to 25 mM mannitol
# [6] = 12 h after transfer to 25 mM mannitol
# [7] = 24 h after transfer to 25 mM mannitol
smiles,measurement,setting,value
OC[C@@H](O)[C@@H](O)[C@H](O)[C@H](O)CO [mannitol],number of mitotic cells (CYCB1;1:DBox-GUS activity),[1],reduced number of mitotic cells
same,endoreduplication onset,[2],faster onset of endoreduplication
same,number of down-regulated transcripts,[3]; [4],31
same,number of up-regulated transcripts,[3]; [4],27
same,number of down-regulated transcripts,[3]; [5],145
same,number of up-regulated transcripts,[3]; [5],189
same,number of down-regulated transcripts,[3]; [6],84
same,number of up-regulated transcripts,[3]; [6],351
same,magnitude of change (down-regulation) of cell cycle genes,[3]; 24 h after stress onset,approximately 30%
same,number of down-regulated transcripts,[3]; [7],622
same,number of up-regulated transcripts,[3]; [7],886
